Patent US11590139B2, “Substituted aminopurine compounds, compositions thereof, and methods of treatment therewith” (Signal Pharmaceuticals, LLC, priority 2014, dated 2023)
pIC50: −log10 of the molar value. Like-named read-outs stand apart in the source and are kept apart here. Values belong to the molecule of their own block, whether it stands above or below them.

System: Lox-IMVI melanoma cell line
Assay: Lox-IMVI anti-proliferative assay (growth inhibition, Cell Titer-Glo)
Assay type: cell-based, human
Outline: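 Luminescence from cellular ATP measured viability at compound addition and again after 72 h of exposure (37 °C, 5% CO2, RPMI + 10% FBS). Doses spanned 0.5 nM to 10 μM in ten 3-fold steps with 0.2% DMSO. Values were fitted as % of DMSO-treated cells by sigmoidal dose-response.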

[1] = Homo sapiens, Lox-IMVI melanoma cell line, anti-proliferative assay, read-out: Activity (IC50 activity level)
[2] = Homo sapiens, IC50 activity level in the cell-based Lox-IMVI anti-proliferative assay, read-out: Activity
[3] = Homo sapiens, Lox-IMVI anti-proliferative assay, IC50 activity level, read-out: Activity

pIC50 [1]: < 6.00
Molecule: N#Cc1cc(Cl)c(Nc2nc3cnc(N[C@@H]4CCCN(Cc5ccccc5)C4)nc3n2[C@H]2CC[C@@H](C(N)=O)CC2)c(Cl)c1 [Example 753, (1S,4s)-4-(2-((R)-1-benzylpiperidin-3-ylamino)-8-(2,6-dichloro-4-cyanophenylamino)-9H-purin-9-yl)cyclohexanecarboxamide]

pIC50 [2]: < 6.00
Molecule: CC1(C)CC[C@@H](Nc2ncc3nc(Nc4c(F)cc(Cl)cc4F)n([C@H]4CC[C@@H](C(N)=O)CC4)c3n2)C[C@H]1O [Example 386, (1S,4s)-4-(8-(4-chloro-2,6-difluorophenylamino)-2-((1R,3R)-3-hydroxy-4,4-dimethylcyclohexylamino)-9H-purin-9-yl)cyclohexanecarboxamide]

pIC50 [2]: < 6.00
Molecule: NC(=O)[C@H]1CC[C@@H](n2c(Nc3c(F)ccc(Cl)c3F)nc3cnc(NC4CC(F)(F)C4)nc32)CC1 [Example 234, (1s,4s)-4-(8-(3-chloro-2,6-difluorophenylamino)-2-(3,3-difluorocyclobutylamino)-9H-purin-9-yl)cyclohexanecarboxamide]

pIC50 [2]: < 6.00
Molecule: CC[C@H](C)Nc1ncc2nc(Nc3c(F)cccc3Cl)n([C@H]3CC[C@@H](C(N)=O)CC3)c2n1 [Example 337, (1R,4s)-4-(2-(sec-butylamino)-8-(2-chloro-6-fluorophenylamino)-9H-purin-9-yl)cyclohexanecarboxamide]

pIC50 [2]: < 6.00
Molecule: C[C@@H](CO)Nc1ncc2nc(Nc3ccc(Cl)cc3Cl)n([C@H]3CC[C@@H](C(N)=O)CC3)c2n1 [Example 170, (1R,4s)-4-(8-(2,4-dichlorophenylamino)-2-((S)-1-hydroxypropan-2-ylamino)-9H-purin-9-yl)cyclohexanecarboxamide]

pIC50 [1]: < 6.00
Molecule: NC(=O)[C@H]1CC[C@@H](n2c(Nc3c(F)cc(Cl)cc3Cl)nc3cnc(N[C@@H]4CCCN(Cc5ccccc5)C4)nc32)CC1 [Example 758, (1S,4s)-4-(2-((R)-1-benzylpiperidin-3-ylamino)-8-(2,4-dichloro-6-fluorophenylamino)-9H-purin-9-yl)cyclohexanecarboxamide]

pIC50 [3]: > 6.60
Molecule: C[C@]1(C(N)=O)CC[C@@H](n2c(Nc3c(F)cc(Cl)cc3F)nc3cnc(NC4CCOCC4)nc32)CC1 [Example 521, (1s,4s)-4-(8-(4-chloro-2,6-difluorophenylamino)-2-(tetrahydro-2H-pyran-4-ylamino)-9H-purin-9-yl)-1-methylcyclohexanecarboxamide]

pIC50 [2]: < 6.00
Molecule: NC(=O)[C@H]1CC[C@@H](n2c(Nc3ccc(F)c(F)c3F)nc3cnc(N[C@@H]4CCC[C@H](O)C4)nc32)CC1 [Example 364, (1S,4s)-4-(2-((1R,3S)-3-hydroxycyclohexylamino)-8-(2,3,4-trifluorophenylamino)-9H-purin-9-yl)cyclohexanecarboxamide]

pIC50 [3]: 6.30 to 6.60
Molecule: C[C@]1(C(N)=O)CC[C@@H](n2c(Nc3c(F)cc(Cl)cc3F)nc3cnc(NC4CCCC4)nc32)CC1 [Example 559, (1s,4s)-4-(8-(4-chloro-2,6-difluorophenylamino)-2-(cyclopentylamino)-9H-purin-9-yl)-1-methylcyclohexanecarboxamide]

pIC50 [2]: < 6.00
Molecule: CC(C)(C)OC(=O)N1CC[C@H](Nc2ncc3nc(Nc4c(F)cccc4F)n([C@H]4CC[C@@H](C(N)=O)CC4)c3n2)[C@H](F)C1 [Example 128, (3R,4S)-tert-butyl 4-(9-((1s,4R)-4-carbamoylcyclohexyl)-8-(2,6-difluorophenylamino)-9H-purin-2-ylamino)-3-fluoropiperidine-1-carboxylate]

Molecule: (R)-isopropyl 3-(9-((1s,4S)-4- carbamoylcyclohexyl)-8-(2-chloro-4- cyano-6-fluorophenylamino)-9H-purin- 2-ylamino)piperidine-1-carboxylate [Example 776]
pIC50 (Lox-IMVI melanoma cell line, anti-proliferative assay, read-out: Activity (IC50 activity level)): 6.00 to 6.30

pIC50 [2]: > 6.60
Molecule: NC(=O)[C@H]1CC[C@@H](n2c(Nc3c(F)cc(F)cc3Cl)nc3cnc(NC4CCC(F)(F)CC4)nc32)CC1 [Example 185, (1s,4s)-4-(8-(2-chloro-4,6-difluorophenylamino)-2-(4,4-difluorocyclohexylamino)-9H-purin-9-yl)cyclohexanecarboxamide]

Molecule: N#Cc1ccc(Nc2nc3cnc(NC4CCOCC4)nc3n2[C@H]2CC[C@@H](C(N)=O)CC2)c(Cl)c1Cl [Example 696, (1s,4s)-4-(8-(2,3-dichloro-4-cyanophenylamino)-2-(tetrahydro-2H-pyran-4-ylamino)-9H-purin-9-yl)cyclohexanecarboxamide]
pIC50 [1]: 6.00 to 6.30

pIC50 [2]: 6.00 to 6.30
Molecule: NC(=O)[C@H]1CC[C@@H](n2c(Nc3c(Cl)cc(F)cc3Cl)nc3cnc(NC4CCC4)nc32)CC1 [Example 118, (1s,4s)-4-(2-(cyclobutylamino)-8-(2,6-dichloro-4-fluorophenylamino)-9H-purin-9-yl)cyclohexanecarboxamide]

pIC50 [1]: 6.30 to 6.60
Molecule: N#Cc1cc(Cl)c(Nc2nc3cnc(N[C@H]4CCC[C@H](O)C4)nc3n2[C@H]2CC[C@@H](C(N)=O)CC2)c(Cl)c1 [Example 688, (1R,4s)-4-(8-(2,6-dichloro-4-cyanophenylamino)-2-((1S,3S)-3-hydroxycyclohexylamino)-9H-purin-9-yl)cyclohexanecarboxamide]

pIC50 [2]: 6.00 to 6.30
Molecule: NC(=O)[C@H]1CC[C@@H](n2c(Nc3c(Cl)cc(Cl)cc3Cl)nc3cnc(N[C@H]4CCOC[C@@H]4F)nc32)CC1 [Example 246, (1R,4s)-4-(2-((3R,4S)-3-fluorotetrahydro-2H-pyran-4-ylamino)-8-(2,4,6-trichlorophenylamino)-9H-purin-9-yl)cyclohexanecarboxamide]

pIC50 [3]: < 6.00
Molecule: N#Cc1ccc(Cl)c(Nc2nc3cnc(NC4CCOCC4)nc3n2[C@H]2CC[C@@H](C(N)=O)CC2)c1Cl [Example 443, (1s,4s)-4-(8-(2,6-dichloro-3-cyanophenylamino)-2-(tetrahydro-2H-pyran-4-ylamino)-9H-purin-9-yl)cyclohexanecarboxamide]

pIC50 [1]: < 6.00
Molecule: CNC(=O)N1CCC[C@@H](Nc2ncc3nc(Nc4c(F)cc(Cl)cc4Cl)n([C@H]4CC[C@@H](C(N)=O)CC4)c3n2)C1 [Example 706, (R)-3-(9-((1s,4S)-4-carbamoylcyclohexyl)-8-(2,4-dichloro-6-fluorophenylamino)-9H-purin-2-ylamino)-N-methylpiperidine-1-carboxamide]

pIC50 [2]: 6.00 to 6.30
Molecule: CO[C@H]1CC[C@H](Nc2ncc3nc(Nc4c(Cl)cc(Cl)cc4Cl)n([C@H]4CC[C@@H](C(N)=O)CC4)c3n2)CC1 [Example 77, (1s,4s)-4-(2-((1r,4r)-4-methoxycyclohexylamino)-8-(2,4,6-trichlorophenylamino)-9H-purin-9-yl)cyclohexanecarboxamide]

pIC50 [2]: > 6.60
Molecule: NC(=O)[C@H]1CC[C@@H](n2c(Nc3c(Cl)cc(Cl)cc3Cl)nc3cnc(N[C@@H]4CCOC[C@H]4F)nc32)CC1 [Example 274, (1S,4s)-4-(2-((3S,4R)-3-fluorotetrahydro-2H-pyran-4-ylamino)-8-(2,4,6-trichlorophenylamino)-9H-purin-9-yl)cyclohexanecarboxamide]

pIC50 [1]: > 6.60
Molecule: C[C@@H]1COCC[C@@H]1Nc1ncc2nc(Nc3c(Cl)cc(C#N)cc3Cl)n([C@H]3CC[C@@](C)(C(N)=O)CC3)c2n1 [Example 763, (1S,4s)-4-(8-(2,6-dichloro-4-cyanophenylamino)-2-((3S,4R)-3-methyltetrahydro-2H-pyran-4-ylamino)-9H-purin-9-yl)-1-methylcyclohexanecarboxamide]

pIC50 [3]: < 6.00
Molecule: NC(=O)[C@H]1CC[C@@H](n2c(Nc3c(Cl)cc(C(F)(F)F)cc3Cl)nc3cnc(NC4CC5(COC5)C4)nc32)CC1 [Example 570, (1s,4s)-4-(2-(2-oxaspiro[3.3]heptan-6-ylamino)-8-(2,6-dichloro-4-(trifluoromethyl)phenylamino)-9H-purin-9-yl)cyclohexanecarboxamide]

pIC50 [3]: < 6.00
Molecule: C[C@@H](CO)Nc1ncc2nc(Nc3c(Cl)cc(C(F)(F)F)cc3Cl)n([C@H]3CC[C@](C)(C(N)=O)CC3)c2n1 [Example 480, (1S,4r)-4-(8-(2,6-dichloro-4-(trifluoromethyl)phenylamino)-2-((S)-1-hydroxypropan-2-ylamino)-9H-purin-9-yl)-1-methylcyclohexanecarboxamide]

pIC50 [3]: < 6.00
Molecule: N#Cc1cc(Cl)c(Nc2nc3cnc(N[C@H]4CCCC[C@H](O)C4)nc3n2[C@H]2CC[C@@H](C(N)=O)CC2)c(Cl)c1 [Example 449, (1R,4s)-4-(8-(2,6-dichloro-4-cyanophenylamino)-2-((1S,3S)-3-hydroxycycloheptylamino)-9H-purin-9-yl)cyclohexanecarboxamide]

pIC50 [1]: < 6.00
Molecule: NC(=O)[C@H]1CC[C@@H](n2c(Nc3c(F)cc(Cl)cc3F)nc3cnc(N[C@@H]4CCCN(c5ccccc5)C4)nc32)CC1 [Example 747, (1S,4s)-4-(8-(4-chloro-2,6-difluorophenylamino)-2-((R)-1-phenylpiperidin-3-ylamino)-9H-purin-9-yl)cyclohexanecarboxamide]

pIC50 [1]: > 6.60
Molecule: C[C@]1(C(N)=O)CC[C@@H](n2c(Nc3c(Cl)cc(C#N)cc3Cl)nc3cnc(NC4CCC4)nc32)CC1 [Example 599, (1s,4s)-4-(2-(cyclobutylamino)-8-(2,6-dichloro-4-cyanophenylamino)-9H-purin-9-yl)-1-methylcyclohexanecarboxamide]

pIC50 [3]: > 6.60
Molecule: C[C@]1(C(N)=O)CC[C@@H](n2c(Nc3c(F)cc(Cl)cc3Cl)nc3cnc(N[C@@H]4CCC[C@H](O)C4)nc32)CC1 [Example 564, (1S,4s)-4-(8-(2,4-dichloro-6-fluorophenylamino)-2-((1R,3S)-3-hydroxycyclohexylamino)-9H-purin-9-yl)-1-methylcyclohexanecarboxamide]

pIC50 [3]: > 6.60
Molecule: C[C@@H]1COCC[C@H]1Nc1ncc2nc(Nc3c(Cl)cc(C#N)cc3Cl)n([C@H]3CC[C@@H](C(N)=O)CC3)c2n1 [Example 495, (1S,4s)-4-(8-(2,6-dichloro-4-cyanophenylamino)-2-((3S,4R)-3-methyltetrahydro-2H-pyran-4-ylamino)-9H-purin-9-yl)cyclohexanecarboxamide]
